Data reported in patent US9980943B2, “Methods of treating muscular dystrophy” (BOARD OF REGENTS OF THE NEVADA SYSTEM OF HIGHER EDUCATION, …, priority 2013, dated 2018).

Legend:
Assay type in all cases: cell-based, mouse
[1] = tested on: α7 integrin (LacZ reporter in α7βgal+/− myoblasts); assay: Myoblast α7+/LacZ integrin FDG assay (Burkin assay in myoblasts, 96-well); details: α7+/LacZ myoblasts, 96-well
[2] = tested on: α7 integrin (LacZ reporter in α7+/LacZ myotubes); assay: Myotube α7 integrin FDG assay (Burkin assay in myotubes, 96-well); details: myotubes
[3] = tested on: β-galactosidase in CMV-LacZ C2C12 myoblasts; assay: CMV-LacZ secondary screen in C2C12 myoblasts (β-Gal stabilizing assay); details: CMV-LacZ C2C12 myoblasts
Method in brief: (§1)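 β-gal stabilization was measured in C2C12 myoblasts or myotubes stably transfected with a CMV-driven LacZ construct, using the FDG β-gal assay. Compounds were tested in dose-response at 0.5, 1, 5, 10, 20 and 40 μM, with two replicates per point.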

[4] = tested on: β-galactosidase in CMV-LacZ C2C12 myotubes; assay: CMV-LacZ secondary screen in C2C12 myotubes (β-Gal stabilizing assay); details: C2C12 CMV-LacZ myotubes, fold relative to DMSO
Method in brief: as §1

| Structure (SMILES) | Burkin Assay in Myoblasts, signal relative to DMSO ([1]; 0.5 uM) | Burkin Assay in Myoblasts, signal relative to DMSO ([1]; 1 uM) | Burkin Assay in Myoblasts, signal relative to DMSO ([1]; 5 uM) | Burkin Assay in Myoblasts, signal relative to DMSO ([1]; 10 uM) | Burkin Assay in Myoblasts, signal relative to DMSO ([1]; 20 uM) | Burkin Assay in Myoblasts, signal relative to DMSO ([1]; 40 uM) | Burkin Assay in Myotubes, α7 integrin LacZ reporter signal relative to DMSO ([2]; 0.5 uM) | Burkin Assay in Myotubes, α7 integrin LacZ reporter signal relative to DMSO ([2]; 1 uM) | Burkin Assay in Myotubes, α7 integrin LacZ reporter signal relative to DMSO ([2]; 5 uM) | Burkin Assay in Myotubes, α7 integrin LacZ reporter signal relative to DMSO ([2]; 10 uM) | Burkin Assay in Myotubes, α7 integrin LacZ reporter signal relative to DMSO ([2]; 20 uM) | Burkin Assay in Myotubes, α7 integrin LacZ reporter signal relative to DMSO ([2]; 40 uM) | CMV-LACZ in Myoblasts (β-galactosidase activity relative to DMSO) ([3]; 0.5 uM) | CMV-LACZ in Myoblasts (β-galactosidase activity relative to DMSO) ([3]; 1 uM) | CMV-LACZ in Myoblasts (β-galactosidase activity relative to DMSO) ([3]; 5 uM) | CMV-LACZ in Myoblasts (β-galactosidase activity relative to DMSO) ([3]; 10 uM) | CMV-LACZ in Myoblasts (β-galactosidase activity relative to DMSO) ([3]; 20 uM) | CMV-LACZ in Myoblasts (β-galactosidase activity relative to DMSO) ([3]; 40 uM) | CMV-LACZ in Myotubes, signal relative to DMSO ([4]; 0.5 uM) | CMV-LACZ in Myotubes, signal relative to DMSO ([4]; 1 uM) | further results |
| --- | --- | --- | --- | --- | --- | --- | --- | --- | --- | --- | --- | --- | --- | --- | --- | --- | --- | --- | --- | --- | --- |
| CCOc1cc(C)c(S(=O)(=O)N2CCCCC2)cc1C [MLS000693795-01] | 1.1137 | 1.242 | 1.02 | 0.9728 | 1.187 | 1.24 | 0.8397 | 0.9171 | 0.9381 | 0.9384 | 1.002 | 0.9513 | 0.9100 | 1.1104 | 0.9554 | 0.9207 | 0.8526 | 0.8730 | 0.9771 | 1.0314 | CMV-LACZ in Myotubes, signal relative to DMSO ([4]; 5 uM): 1.1780; CMV-LACZ in Myotubes, signal relative to DMSO ([4]; 10 uM): 1.0774; CMV-LACZ in Myotubes, signal relative to DMSO ([4]; 20 uM): 1.0453; CMV-LACZ in Myotubes, signal relative to DMSO ([4]; 40 uM): 1.0716 |
| Cc1ccc(Cn2nnc3c(=O)[nH]c(C4CCCN(C(=O)c5ccco5)C4)nc32)cc1 (stereo not drawn) [MLS001217212-01] | 1.095 | 1.178 | 0.9785 | 0.9933 | 0.9967 | 1.064 | 0.8233 | 0.8386 | 0.8831 | 0.8772 | 0.7663 | 0.7366 | 1.1804 | 0.9179 | 1.0711 | 1.0626 | 1.1137 | 0.9459 | 1.0190 | 0.9610 | CMV-LACZ in Myotubes, signal relative to DMSO ([4]; 5 uM): 0.9795; CMV-LACZ in Myotubes, signal relative to DMSO ([4]; 10 uM): 1.0832; CMV-LACZ in Myotubes, signal relative to DMSO ([4]; 20 uM): 1.1842; CMV-LACZ in Myotubes, signal relative to DMSO ([4]; 40 uM): 1.0105 |
| CNC(=O)CSc1nnc(-c2ccc3c(c2)OCO3)n1C [MLS000717689-01] | 1.158 | 1.042 | 1.032 | 1.038 | 0.96 | 0.9866 | 1.111 | 0.9006 | 1.048 | 1.076 | 0.8283 | 0.7135 | 1.0125 | 1.0203 | 1.1129 | 1.0936 | 1.0407 | 0.8996 | 0.8415 | 1.0956 | CMV-LACZ in Myotubes, signal relative to DMSO ([4]; 5 uM): 0.9686; CMV-LACZ in Myotubes, signal relative to DMSO ([4]; 10 uM): 0.9569; CMV-LACZ in Myotubes, signal relative to DMSO ([4]; 20 uM): 0.9576; CMV-LACZ in Myotubes, signal relative to DMSO ([4]; 40 uM): 0.9129 |
| CC1CC(C)(C)NC(=S)N1CC(=O)N(C)Cc1ccccc1 (stereo not drawn) [MLS000586245-01] | 0.9903 | 1.049 | 1.116 | 1.244 | 1.033 | 1.021 | 1.003 | 0.9584 | 1.043 | 1.179 | 0.9426 | 1.026 | 0.9034 | 0.8985 | 0.9258 | 1.0505 | 0.7726 | 0.7674 | 1.0611 | 1.0800 | CMV-LACZ in Myotubes, signal relative to DMSO ([4]; 5 uM): 0.9511; CMV-LACZ in Myotubes, signal relative to DMSO ([4]; 10 uM): 1.1338; CMV-LACZ in Myotubes, signal relative to DMSO ([4]; 20 uM): 1.2267; CMV-LACZ in Myotubes, signal relative to DMSO ([4]; 40 uM): 1.2656 |
| Cc1noc(C)c1COc1ccc(C(=O)NCCc2ccccn2)cc1 [MLS001061374-01] | 0.8477 | 0.8448 | 0.9826 | 1.169 | 0.873 | 0.6774 | 1.058 | 1.092 | 1.004 | 1.181 | 0.732 | 0.8155 | 0.7117 | 1.1702 | 1.0601 | 0.9793 | 0.9744 | 1.1037 | 1.2568 | 1.1000 | CMV-LACZ in Myotubes, signal relative to DMSO ([4]; 5 uM): 1.1237; CMV-LACZ in Myotubes, signal relative to DMSO ([4]; 10 uM): 0.8498; CMV-LACZ in Myotubes, signal relative to DMSO ([4]; 20 uM): 1.1689; CMV-LACZ in Myotubes, signal relative to DMSO ([4]; 40 uM): 1.0489 |
| COc1ccc(NC(=O)C2(N(C(=O)Cn3nnnc3N)c3ccc(OC)cc3)CCCCC2)cc1 [MLS001030268-01] | 1.239 | 1.143 | 1.49 | 0.8716 | 0.726 | 0.6069 | 1.076 | 1.161 | 1.213 | 0.9249 | 0.6277 | 0.7606 | 1.0809 | 1.1550 | 1.1347 | 1.1787 | 0.7467 | 0.5556 | 0.8830 | 1.1711 | CMV-LACZ in Myotubes, signal relative to DMSO ([4]; 5 uM): 1.1318; CMV-LACZ in Myotubes, signal relative to DMSO ([4]; 10 uM): 1.1128; CMV-LACZ in Myotubes, signal relative to DMSO ([4]; 20 uM): 0.9365; CMV-LACZ in Myotubes, signal relative to DMSO ([4]; 40 uM): 0.9506 |
